Patent US8759386B2, “Pyrazole compounds as CRTH2 antagonists” (Boehringer Ingelheim International GmbH, priority 2011, dated 2014)
pKi: −log10 of the molar value.

Molecular target: human CRTH2 receptor (Homo sapiens (Human), UniProt Q9Y5Y4)
Test: CRTH2 receptor radioligand binding assay (SPA, [3H]-PGD2, CHO-K1-hCRTH2 cell membranes)
Conditions: displacement of [3H]-PGD2 from CHO-K1-hCRTH2 membranes
Experimental: Preparation of Human CRTH2 Receptor Membranes and Radioligand Binding Assay
The binding of CRTH2 antagonists is determined using membranes prepared from Chinese hamster ovary cells (CHO-K1 cells) transfected with the human CRTH2 receptor (CHO-K1-hCRTH2 cells, Perkin Elmer, Cat No ES-561-C). To produce cell membranes the CHO-K1-hCRTH2 cells are cultured in suspension in CHO SFMII medium supplemented with 400 μg/mL G418. The cells are harvested by centrifugation at 300 g for 10 min at room temperature. The cell pellet is resuspended in Phosphate Buffer Saline (PBS) including a protease inhibitor mix (Complete, Roche) and adjusted to a concentration of 10E7 cells/mL. The CHO-K1-hCRTH2 cells are disrupted by nitrogen […] to obtain the membrane preparation. Cell debris is removed by centrifugation (500 g at 4° C., 30 min) and the supernatant is transferred into fresh tubes followed by a second centrifugation at 40000 g for 1 hour at 4° C. to sediment the membranes. The membranes are suspended in SPA incubation buffer (50 mM Tris HCl, 10 mM MgCl2, 150 mM NaCl, 1 mM EDTA, pH 7.4) without bovine serum albumin, homogenized by passing through a single use needle (Terumo, 23G×1″), and stored in aliquots at −80° C.
The CRTH2 receptor binding assay is performed in a scintillation proximity assay (SPA) format with the radioligand [^3H]-PGD2 (Perkin Elmer, NET616000MC). CHO-K1-hCRTH2 cell membranes are again homogenized by passing through a single use needle (Terumo, 23G×1″) and diluted in SPA incubation buffer in suitable concentrations (0.5-10 μg protein/well). The SPA assay is set up in 96 well microtiter plates (Perkin Elmer, Cat No. 6005040) in SPA incubation buffer with a final volume of 200 μL per well and final concentration of 50 mM Tris-HCl, 10 mM MgCl2, 150 mM NaCl, 1 mM EDTA pH 7.4, 0.1% bovine serum albumin). The SPA assay mixture contains 60 μl of the membrane suspension, 80 μL of Wheat Germ Agglutinin coated PVT beads (GE Healthcare, RPNQ-0001, 0.3 mg/well), 40 μL of [^3H]-PGD2 diluted in SPA buffer to a final concentration of 1 nM (50 000 dpm) and 20 μL of the test compound (dissolved in dimethylsulfoxide). The SPA assay mixture is incubated for 3 h at room temperature. Bound radioactivity is determined with a scintillation counter (Micro Beta Trilux, Wallac). The binding of [^3H]-PGD2 to CHO-K1-hCRTH2 cell membranes is determined in the absence (total binding, Bo) and presence (non-specific binding, NSB) of unlabelled PGD2 (1 μM, Cayman Chemical, Cat No 12010) or a reference CRTH2 antagonist (10 μM CAY10471, Cayman Chemical, Cat No 10006735). Determination of the affinity of a test compound is calculated by subtraction of the non-specific binding (NSB) from the total binding (Bo) or the binding in the presence of the test compound (B) at a given compound concentration. The NSB value is set to 100% inhibition. The Bo-NSB value is set to 0% inhibition.
% inhibition values were obtained at a defined compound concentration, e.g. at 1 μM, % inhibition of the test compound was calculated by the formula 100−((B−NSB)*100/(Bo−NSB)). % inhibition values above 100% are founded by assay variance.

[1] = Table 1, compounds of formula Ia″
[2] = Table 2, compounds of formula Ib″

human CRTH2 receptor, sequence (Q9Y5Y4 whole entry): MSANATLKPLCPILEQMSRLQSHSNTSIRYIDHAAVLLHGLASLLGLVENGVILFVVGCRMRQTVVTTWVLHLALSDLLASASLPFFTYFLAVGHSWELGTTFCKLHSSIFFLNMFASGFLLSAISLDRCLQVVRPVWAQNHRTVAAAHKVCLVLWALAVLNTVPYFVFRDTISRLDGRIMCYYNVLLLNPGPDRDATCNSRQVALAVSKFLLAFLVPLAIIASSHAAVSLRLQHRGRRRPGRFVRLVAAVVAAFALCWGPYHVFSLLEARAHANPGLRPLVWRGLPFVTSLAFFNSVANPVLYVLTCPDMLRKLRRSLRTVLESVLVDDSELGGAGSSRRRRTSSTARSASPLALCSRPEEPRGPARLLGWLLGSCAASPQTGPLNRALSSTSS

Row | SMILES | pKi [1] | pKi [2]
1 | CCCn1c(C(=O)Nc2ccc(Cn3nc(C)c(CC(=O)O)c3C)cc2)cc2ccc(F)cc21 [Compound 28] | 10.00 | 
2 | Cc1nn(Cc2ccc(NC(=O)c3cc4ccccc4n3Cc3ccccc3)cc2)c(C)c1CC(=O)O [Compound 18] | > 10.00 | 
3 | Cc1nn(Cc2ccc(NC(=O)c3cc4ccc(Cl)cc4o3)cc2F)c(C)c1CC(=O)O [Compound 39] | 9.40 | 
4 | CCc1c(C(=O)Nc2ccc(Cn3nc(C)c(CC(=O)O)c3C)cc2)oc2c(F)cccc12 [Compound 34] | 9.52 | 
5 | Cc1nn(Cc2ccc(NC(=O)c3cc4ccccc4[nH]3)cc2)c(C)c1CC(=O)O [Compound 10] | 9.70 | 
6 | CCCc1c(C(=O)Nc2ccc(Cn3nc(C)c(CC(=O)O)c3C)c(F)c2)oc2ccc(F)cc12 [Compound 52] | 9.15 | 
7 | Cc1nn(Cc2ccc(NC(=O)c3oc4c(Cl)cccc4c3C)cc2F)c(C)c1CC(=O)O [Compound 37] | 8.66 | 
8 | CCCn1c(C(=O)Nc2ccc(Cn3nc(C)c(CC(=O)O)c3C)c(F)c2)cc2ccc(F)cc21 [Compound 42] | 10.00 | 
9 | CCc1c(C(=O)Nc2ccc(Cn3nc(C)c(CC(=O)O)c3C)cc2)oc2c(F)cc(F)cc12 [Compound 35] | 9.52 | 
10 | CCn1c(C(=O)Nc2ccc(Cn3nc(C)c(CC(=O)O)c3C)c(F)c2)cc2ccc(F)cc21 [Compound 41] | 10.00 | 
11 | CCCn1c(C(=O)Nc2ccc(Cn3nc(C)c(CC(=O)O)c3C)c(F)c2)cc2ccccc21 [Compound 56] | 9.70 | 
12 | COc1cccc2cc(C(=O)Nc3ccc(Cn4nc(C)c(CC(=O)O)c4C)cc3)oc12 [Compound 9] | 8.92 | 
13 | COc1ccc2oc(C(=O)Nc3ccc(Cn4nc(C)c(CC(=O)O)c4C)c(F)c3)c(C)c2c1 [Compound 49] | 10.00 | 
14 | CCn1c(C(=O)Nc2ccc(Cn3nc(C)c(CC(=O)O)c3C)c(F)c2)cc2c(F)cccc21 [Compound 40] | 9.40 | 
15 | Cc1nn(Cc2ccc(NC(=O)c3c[nH]c4ccccc34)cc2)c(C)c1CC(=O)O [Compound 58] |  | 7.43
16 | Cc1nn(Cc2ccc(NC(=O)c3cc4ccccc4n3Cc3ccccc3)cc2F)c(C)c1CC(=O)O [Compound 3] | 9.70 | 
17 | CCc1nn(Cc2ccc(NC(=O)c3cc4ccccc4n3CC)cc2)c(CC)c1CC(=O)O [Compound 22] | 9.70 | 
18 | Cc1nn(Cc2ccc(NC(=O)c3cc4ccccc4n3C)cc2F)c(C)c1CC(=O)O [Compound 30] | 9.00 | 
19 | Cc1nn(Cc2ccc(NC(=O)c3cc4ccccc4n3C)cc2)c(C)c1CC(=O)O [Compound 16] | 9.10 | 
20 | COc1ccc2oc(C(=O)Nc3ccc(Cn4nc(C)c(CC(=O)O)c4C)cc3)cc2c1 [Compound 6] | 9.22 | 
21 | CCc1nn(Cc2ccc(NC(=O)c3c(C)c4ccccc4n3C)cc2)c(CC)c1CC(=O)O [Compound 24] | 8.00 | 
22 | Cc1nn(Cc2ccc(NC(=O)c3oc4c(F)cccc4c3C)cc2F)c(C)c1CC(=O)O [Compound 50] | 9.40 | 
23 | CCc1c(C(=O)Nc2ccc(Cn3nc(C)c(CC(=O)O)c3C)c(F)c2)oc2ccc(F)cc12 [Compound 47] | 9.05 | 
24 | Cc1nn(Cc2ccc(NC(=O)c3cc4ccccc4[nH]3)cc2Cl)c(C)c1CC(=O)O [Compound 2] | 9.30 | 
25 | Cc1nn(Cc2ccc(NC(=O)c3c(C)c4ccccc4n3C)cc2)c(C)c1CC(=O)O [Compound 13] | 7.19 | 
26 | CCn1c(C(=O)Nc2ccc(Cn3nc(C)c(CC(=O)O)c3C)cc2)cc2ccc(F)cc21 [Compound 29] | 10.00 | 

Row | SMILES | pKi [1] | pKi [2]
27 | Cc1nn(Cc2ccc(NC(=O)c3cc4cc(F)ccc4n3C)cc2F)c(C)c1CC(=O)O [Compound 51] | 9.40 | 
28 | Cc1nn(Cc2ccc(NC(=O)c3coc4ccccc34)cc2)c(C)c1CC(=O)O [Compound 57] |  | 8.06
29 | Cc1nn(Cc2ccc(NC(=O)c3csc4ccccc34)cc2)c(C)c1CC(=O)O [Compound 59] |  | 8.42
30 | COc1ccc2[nH]c(C(=O)Nc3ccc(Cn4nc(C)c(CC(=O)O)c4C)cc3)c(C)c2c1 [Compound 14] | 10.00 | 
31 | CCCn1c(C(=O)Nc2ccc(Cn3nc(C)c(CC(=O)O)c3C)c(F)c2)cc2cc(F)ccc21 [Compound 54] | 9.70 | 
32 | Cc1nn(Cc2ccc(NC(=O)c3cc4ccccc4o3)cc2Cl)c(C)c1CC(=O)O [Compound 5] | 9.10 | 
33 | COCc1c(C(=O)Nc2ccc(Cn3nc(C)c(CC(=O)O)c3C)c(F)c2)oc2ccccc12 [Compound 43] | 8.64 | 
34 | Cc1nn(Cc2ccc(NC(=O)c3oc4c(F)cccc4c3C)cc2)c(C)c1CC(=O)O [Compound 7] | 8.89 | 
35 | CCCCn1c(C(=O)Nc2ccc(Cn3nc(C)c(CC(=O)O)c3C)c(F)c2)cc2ccccc21 [Compound 53] | 9.70 | 
36 | CCc1nn(Cc2ccc(NC(=O)c3cc4cc(F)ccc4[nH]3)cc2)c(CC)c1CC(=O)O [Compound 23] | 9.52 | 
37 | Cc1nn(Cc2ccc(NC(=O)c3cc4cc(Cl)ccc4o3)cc2)c(C)c1CC(=O)O [Compound 8] | 9.52 | 
38 | Cc1nn(Cc2ccc(NC(=O)c3oc4ccc(Cl)cc4c3C)cc2F)c(C)c1CC(=O)O [Compound 44] | 9.52 | 
39 | Cc1nn(Cc2ccc(NC(=O)c3oc4c(Cl)cccc4c3C)cc2)c(C)c1CC(=O)O [Compound 33, (1-(4-[(7-Chloro-3-methylbenzofuran-2-carbonyl)amino]benzyl)-3,5-dimethyl-1H-pyrazol-4-yl)acetic acid] | 8.66 | 
40 | CCc1nn(Cc2ccc(NC(=O)c3cc4cc(Cl)ccc4o3)cc2)c(CC)c1CC(=O)O [Compound 19] | 9.70 | 
41 | CCc1nn(Cc2ccc(NC(=O)c3cc4ccc(F)cc4[nH]3)cc2)c(CC)c1CC(=O)O [Compound 25] | 9.70 | 
42 | Cc1nn(Cc2ccc(NC(=O)c3cc4ccc(F)cc4[nH]3)cc2)c(C)c1CC(=O)O [Compound 11] | 9.70 | 
43 | CCn1c(C(=O)Nc2ccc(Cn3nc(C)c(CC(=O)O)c3C)cc2)cc2ccccc21 [Compound 17] | 9.40 | 
44 | Cc1nn(Cc2ccc(NC(=O)c3cc4ccccc4s3)cc2)c(C)c1CC(=O)O [Compound 15] | 9.52 | 
45 | CCCCn1c(C(=O)Nc2ccc(Cn3nc(C)c(CC(=O)O)c3C)c(F)c2)cc2cc(F)ccc21 [Compound 55] | 10.00 | 
46 | CCn1c(C(=O)Nc2ccc(Cn3nc(C)c(CC(=O)O)c3C)c(F)c2)cc2ccccc21 [Compound 31] | 9.70 | 
47 | Cc1nn(Cc2ccc(NC(=O)c3cc4ccc(Cl)cc4o3)cc2)c(C)c1CC(=O)O [Compound 36] | 9.70 | 
48 | CCc1nn(Cc2ccc(NC(=O)c3cc4ccccc4n3C)cc2)c(CC)c1CC(=O)O [Compound 21] | 9.52 | 
49 | CCc1nn(Cc2ccc(NC(=O)c3cc4ccccc4[nH]3)cc2)c(CC)c1CC(=O)O [Compound 20] | 9.52 | 
50 | Cc1nn(Cc2ccc(NC(=O)c3cc4cc(F)ccc4[nH]3)cc2)c(C)c1CC(=O)O [Compound 12] | 9.70 | 
51 | Cc1nn(Cc2ccc(NC(=O)c3sc4ccc(F)cc4c3C)cc2F)c(C)c1CC(=O)O [Compound 46] | 8.35 | 
